Laboratory results from patent US7329680B2, “Heterocycle substituted carboxylic acids” (The Institute for Pharmaceutical Discovery, LLC, priority 2003, dated 2008).

Row | SMILES | melting point
1 | O=C(O)[C@@H]1CSC(c2ccc(-c3ccc(-n4ccc5ccccc54)cc3)cc2)N1 (stereo in doubt) [Example 27, 2-(4′-Indol-1-yl-biphen-4-yl)thiazolidine-4-carboxylic acid] | 135 to 137 °C (dec.)
2 | CCc1ccc(-c2sc(NC(=O)c3ccc(S(=O)(=O)N4CCCC4C(=O)O)cc3)nc2-c2ccc(Cl)cc2)cc1 (stereo not drawn) [Example 5, 1-{4-[4-(4-Chloro-phenyl)-5-(4-ethyl-phenyl)-thiazol-2-ylcarbamoyl]-benzenesulfonyl}-pyrrolidine-2-carboxylic acid] | 289 to 292 °C
3 | O=C(O)CCNc1cc(-c2ccc(-c3cccc4c3oc3ccccc34)cc2)nc(Cc2ccccc2)n1 [Example 45, 3-[2-Benzyl-6-(4-dibenzofuran-4-yl-phenyl)-pyrimidin-4-ylamino]-propionic acid] | 205 °C (dec.)
4 | O=C(O)CCNc1cc(-c2ccc(-c3cccc4c3oc3ccccc34)cc2)nc(-c2ccccc2)n1 [Example 46, 3-[2-phenyl-6-(4-dibenzofuran-4-yl-phenyl)-pyrimidin-4-ylamino]-propionic acid] | 210 °C (dec.)

Next, values leading:

Row | melting point | SMILES
5 | 148 °C (dec.) | O=C(O)[C@@H]1CSC(c2ccc(-c3ccc(-c4c(Cc5ccccc5)oc5ccccc45)cc3)cc2)N1 (mixture of isomers) [Example 38, (2RS,4R)-2-[4′-(2-Benzylbenzofuran-3-yl)biphen-4-yl]thiazolidine-4-carboxylic acid]
6 | 220 to 223 °C | O=C(O)C(=O)Nc1cc(-c2ccc(-c3cccc4c3oc3ccccc34)cc2)cn(Cc2ccccc2)c1=O [Example 4, N-[1-Benzyl-5-(4-dibenzofuran-4-yl-phenyl)-2-oxo-1,2-dihydro-pyridin-3-yl]-oxalamic acid]
